Measurements as given in ChEMBL document CHEMBL3885881, “DrugMatrix”.

Species on record: Rattus norvegicus
Test: DrugMatrix - Regimen: Daily Repeat
Type: toxicity, organism-based, Sprague-Dawley
Set-up: regimen Daily Repeat, gender Male, age 6-8 weeks
Details: in vivo, sc, route subcutaneous, […]; for ABSOLUTE BASOPHIL / ABSOLUTE EOSINOPHIL / ABSOLUTE LYMPHOCYTE / ABSOLUTE MONOCYTE / BASOPHIL / EOSINOPHIL / ERYTHROCYTE COUNT / HEMATOCRIT / HEMOGLOBIN / LEUKOCYTE COUNT / LYMPHOCYTE / MEAN CORPUSCULAR HEMOGLOBIN / MEAN CORPUSCULAR HEMOGLOBIN CONCENTRATION / MEAN CORPUSCULAR VOLUME / MONOCYTE / NEUTROPHIL / NUCLEATED RED BLOOD CELLS / PLATELET COUNT: tissue Blood; for ALANINE AMINOTRANSFERASE / ALBUMIN / ASPARTATE AMINOTRANSFERASE / BLOOD UREA NITROGEN / CARBON DIOXIDE / CHLORIDE / CHOLESTEROL / CREATINE PHOSPHOKINASE / CREATININE / LACTATE DEHYDROGENASE / LIPASE / PHOSPHORUS / POTASSIUM / SODIUM / TOTAL BILIRUBIN / TOTAL PROTEIN / URIC ACID / GLUCOSE: tissue Plasma
[1] = 0 mg/kg, 72 h, dose level Control, time 3 day
[2] = 0 mg/kg, 120 h, dose level Control, time 5 day
[3] = 64 mg/kg, 72 h, dose level Low, time 3 day

Nc1ccc(S(N)(=O)=O)cc1 [SULFANILAMIDE]
ABSOLUTE BASOPHIL [1]: 0 CELLS/uL
ABSOLUTE EOSINOPHIL [1]: 92.33 CELLS/uL
ABSOLUTE LYMPHOCYTE [1]: 12247.5 CELLS/uL
ABSOLUTE MONOCYTE [1]: 389.67 CELLS/uL
BASOPHIL [1]: 0%
EOSINOPHIL [1]: 0.67%
ERYTHROCYTE COUNT [1]: 5.45 x10E6/uL
HEMATOCRIT [1]: 34.85%
HEMOGLOBIN [1]: 12.97 G/DL
LEUKOCYTE COUNT [1]: 14.05 x10E3/uL
LYMPHOCYTE [1]: 87.33%
MEAN CORPUSCULAR HEMOGLOBIN [1]: 23.78 pg
MEAN CORPUSCULAR HEMOGLOBIN CONCENTRATION [1]: 37.22 G/DL
MEAN CORPUSCULAR VOLUME [1]: 63.93 fL
MONOCYTE [1]: 2.67%
NEUTROPHIL [1]: 9.33%
NUCLEATED RED BLOOD CELLS [1]: 0 /100WBC
PLATELET COUNT [1]: 1174 x10E3/uL
ALANINE AMINOTRANSFERASE [1]: 48.83 u/L
ALBUMIN [1]: 4.23 G/DL
ASPARTATE AMINOTRANSFERASE [1]: 90 u/L
BLOOD UREA NITROGEN [1]: 15.33 mg/dL
CARBON DIOXIDE [1]: 23 mmol/L
CHLORIDE [1]: 103.5 MEQ/L
CHOLESTEROL [1]: 70.5 mg/dL
CREATINE PHOSPHOKINASE [1]: 651.83 u/L
CREATININE [1]: 0.22 mg/dL
LACTATE DEHYDROGENASE [1]: 165 u/L
LIPASE [1]: 9.33 u/L
PHOSPHORUS [1]: 12.03 mg/dL
POTASSIUM [1]: 6.17 MEQ/L
SODIUM [1]: 142.62 MEQ/L
TOTAL BILIRUBIN [1]: 0.2 mg/dL
TOTAL PROTEIN [1]: 5.73 G/DL
URIC ACID [1]: 1.77 mg/dL
ABSOLUTE BASOPHIL [2]: 0 CELLS/uL
ABSOLUTE EOSINOPHIL [2]: 0 CELLS/uL
ABSOLUTE LYMPHOCYTE [2]: 12736.67 CELLS/uL
ABSOLUTE MONOCYTE [2]: 253.5 CELLS/uL
BASOPHIL [2]: 0%
EOSINOPHIL [2]: 0%
ERYTHROCYTE COUNT [2]: 5.72 x10E6/uL
HEMATOCRIT [2]: 36.05%
HEMOGLOBIN [2]: 13.62 G/DL
LEUKOCYTE COUNT [2]: 14.18 x10E3/uL
LYMPHOCYTE [2]: 89.33%
MEAN CORPUSCULAR HEMOGLOBIN [2]: 23.83 pg
MEAN CORPUSCULAR HEMOGLOBIN CONCENTRATION [2]: 37.8 G/DL
MEAN CORPUSCULAR VOLUME [2]: 63.05 fL
MONOCYTE [2]: 1.83%
NEUTROPHIL [2]: 8.83%
NUCLEATED RED BLOOD CELLS [2]: 0 /100WBC
PLATELET COUNT [2]: 1322.17 x10E3/uL
ALANINE AMINOTRANSFERASE [2]: 48.83 u/L
ALBUMIN [2]: 4.27 G/DL
ASPARTATE AMINOTRANSFERASE [2]: 75.83 u/L
BLOOD UREA NITROGEN [2]: 15.5 mg/dL
CARBON DIOXIDE [2]: 30.5 mmol/L
CHLORIDE [2]: 102.33 MEQ/L
CHOLESTEROL [2]: 76.17 mg/dL
CREATINE PHOSPHOKINASE [2]: 205.5 u/L
CREATININE [2]: 0.2 mg/dL
GLUCOSE [2]: 149.67 mg/dL
LACTATE DEHYDROGENASE [2]: 124.5 u/L
LIPASE [2]: 10 u/L
PHOSPHORUS [2]: 10.93 mg/dL
POTASSIUM [2]: 6.59 MEQ/L
SODIUM [2]: 143.1 MEQ/L
TOTAL BILIRUBIN [2]: 0.2 mg/dL
TOTAL PROTEIN [2]: 6.05 G/DL
URIC ACID [2]: 1.45 mg/dL
ABSOLUTE BASOPHIL [3]: 0 CELLS/uL
ABSOLUTE EOSINOPHIL [3]: 0 CELLS/uL
ABSOLUTE LYMPHOCYTE [3]: 13215.67 CELLS/uL
ABSOLUTE MONOCYTE [3]: 191 CELLS/uL
BASOPHIL [3]: 0%
EOSINOPHIL [3]: 0%
ERYTHROCYTE COUNT [3]: 5.71 x10E6/uL
HEMATOCRIT [3]: 36.53%
HEMOGLOBIN [3]: 13.5 G/DL
LEUKOCYTE COUNT [3]: 14.17 x10E3/uL
LYMPHOCYTE [3]: 93.33%
MEAN CORPUSCULAR HEMOGLOBIN [3]: 23.67 pg
MEAN CORPUSCULAR HEMOGLOBIN CONCENTRATION [3]: 36.97 G/DL
MEAN CORPUSCULAR VOLUME [3]: 64.03 fL
MONOCYTE [3]: 1.33%
NEUTROPHIL [3]: 5.33%
NUCLEATED RED BLOOD CELLS [3]: 0 /100WBC
PLATELET COUNT [3]: 1225.33 x10E3/uL
ALANINE AMINOTRANSFERASE [3]: 53 u/L
ALBUMIN [3]: 4.13 G/DL
ASPARTATE AMINOTRANSFERASE [3]: 87 u/L
BLOOD UREA NITROGEN [3]: 16.33 mg/dL
CARBON DIOXIDE [3]: 25.33 mmol/L
CHLORIDE [3]: 103 MEQ/L
CHOLESTEROL [3]: 70.33 mg/dL
CREATINE PHOSPHOKINASE [3]: 269 u/L
CREATININE [3]: 0.24 mg/dL
GLUCOSE [3]: 150.67 mg/dL
LACTATE DEHYDROGENASE [3]: 408.33 u/L
LIPASE [3]: 10 u/L
PHOSPHORUS [3]: 13.03 mg/dL
POTASSIUM [3]: 6.94 MEQ/L
SODIUM [3]: 144.53 MEQ/L
TOTAL BILIRUBIN [3]: 0.27 mg/dL
TOTAL PROTEIN [3]: 5.7 G/DL
URIC ACID [3]: 1.7 mg/dL
